Data from patent US9708314B2, “Heterocyclic amide compound” (NISSAN CHEMICAL INDUSTRIES, LTD., priority 2013, dated 2017).

Key:
Type in all cases: in vivo
Scirpus juncoides = test: Test Example 1: herbicidal activity, application before weed generation in submerged conditions; details: Application herbicide amount 320 g/ha; Seventeenth Table
Outline: (§1)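 Pre-emergence application to water surface of submerged pots (4 cm depth, alluvial soil) on sowing day, with 2.5-leaf rice transplanted; emulsion diluted to g/ha rates. Grown in greenhouse at 25–30 °C; 0–5 herbicidal/crop-effect score after three weeks.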

[1] = tested on: Echinochloa oryzacola Vasing.; test: as above; details: Application herbicide amount 320 g/ha; Seventeenth Table
Outline: as §1

Monochoria vaginalis = test: as above; details: Application herbicide amount 320 g/ha; Seventeenth Table
Outline: as §1

Abutilon theophrasti = test: Test Example 4: herbicidal effect by application to foliage (diluvial soil, plastic box); details: foliage application, 320 g/ha
Outline: (§2)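 Plants were grown in sterilized diluvial soil in a greenhouse at 25-30° C for 14 days, then sprayed on stems and leaves with water-diluted emulsion formulation at set rates in g/ha. Weed control and crop injury were scored 3 weeks after treatment on a 0-5 herbicidal-ratio scale, from 0 (≤5%) to 5 (≥90%).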

Digitaria ciliaris = test: as above; details: foliage application, 320 g/ha
Outline: as §2

Veronica persica = test: as above; details: foliage application, 320 g/ha
Outline: as §2

Amaranthus retroflexus = test: as above; details: foliage application, 320 g/ha
Outline: as §2

[2] = tested on: Echinochloa crus-galli var. crus-galli; test: as above; details: foliage application, 320 g/ha
Outline: as §2

Stellaria media = test: as above; details: foliage application, 320 g/ha
Outline: as §2

Apera spica-venti. = test: as above; details: foliage application, 320 g/ha
Outline: as §2

Galium spurium = test: as above; details: foliage application, 320 g/ha
Outline: as §2

Alopecurus myosuroides = test: as above; details: foliage application, 320 g/ha
Outline: as §2

Avena fatua = test: as above; details: foliage application, 320 g/ha
Outline: as §2

Chenopodium album = test: as above; details: foliage application, 320 g/ha
Outline: as §2

Lolium multiflorum Lam. = test: as above; details: foliage application, 320 g/ha
Outline: as §2

Setaria viridis = test: as above; details: foliage application, 320 g/ha
Outline: as §2

[3] = tested on: transplanted Oryza sativa; test: Test Example 1: effect on crop, application before weed generation in submerged conditions; details: Application herbicide amount 320 g/ha; Seventeenth Table
Outline: as §1

Brassica campestris L. = test: Test Example 4: effect on crop by application to foliage (diluvial soil, plastic box); details: foliage application, 320 g/ha
Outline: as §2

[4] = tested on: Beta vulgaris ssp. vulgaris; test: as above; details: foliage application, 320 g/ha
Outline: as §2

Triticum aestivum = test: as above; details: foliage application, 320 g/ha
Outline: as §2

Glycine max = test: as above; details: foliage application, 320 g/ha
Outline: as §2

Zea mays = test: as above; details: foliage application, 320 g/ha
Outline: as §2

[5] = tested on: directly sowed Oryza sativa; test: as above; details: foliage application, 320 g/ha
Outline: as §2

Compound: Cn1nnnc1NC(=O)c1ccc(C(F)(F)F)n2c(C[S+](C)[O-])nnc12 (centres unmarked) [2-033]
- B: Scirpus juncoides (herbicidal effect grade) (Scirpus juncoides): 4 (Herbicidal ratio of 70% or more and less than 90%)
- A: Echinochloa oryzicola Vasing. (herbicidal effect grade) [1]: 5 (Herbicidal ratio of 90% or more (almost completely withered))
- C: Monochoria vaginalis (herbicidal effect grade) (Monochoria vaginalis): 5 (Herbicidal ratio of 90% or more (almost completely withered))
- M (Abutilon theophrasti) herbicidal effect grade (Abutilon theophrasti): 5 (Herbicidal ratio of 90% or more (almost completely withered))
- F (Digitaria ciliaris) herbicidal effect grade (Digitaria ciliaris): 5 (Herbicidal ratio of 90% or more (almost completely withered))
- R (Veronica persica) herbicidal effect grade (Veronica persica): 5 (Herbicidal ratio of 90% or more (almost completely withered))
- N (Amaranthus retroflexus) herbicidal effect grade (Amaranthus retroflexus): 5 (Herbicidal ratio of 90% or more (almost completely withered))
- H (Echinochloa crus-galli var. crus-galli) herbicidal effect grade [2]: 5 (Herbicidal ratio of 90% or more (almost completely withered))
- P (Stellaria media) herbicidal effect grade (Stellaria media): 5 (Herbicidal ratio of 90% or more (almost completely withered))
- L (Apera spica-venti.) herbicidal effect grade (Apera spica-venti.): 5 (Herbicidal ratio of 90% or more (almost completely withered))
- Q (Galium spurium) herbicidal effect grade (Galium spurium): 5 (Herbicidal ratio of 90% or more (almost completely withered))
- J (Alopecurus myosuroides) herbicidal effect grade (Alopecurus myosuroides): 4 (Herbicidal ratio of 70% or more and less than 90%)
- I (Avena fatua) herbicidal effect grade (Avena fatua): 5 (Herbicidal ratio of 90% or more (almost completely withered))
- O (Chenopodium album) herbicidal effect grade (Chenopodium album): 5 (Herbicidal ratio of 90% or more (almost completely withered))
- K (Lolium multiflorum Lam.) herbicidal effect grade (Lolium multiflorum Lam.): 4 (Herbicidal ratio of 70% or more and less than 90%)
- G (Setaria viridis) herbicidal effect grade (Setaria viridis): 5 (Herbicidal ratio of 90% or more (almost completely withered))
- a: transplanted Oryza sativa (effect on crop grade) [3]: 4 (Herbicidal ratio of 70% or more and less than 90%)
- g (Brassica campestris L.) effect on crop grade (Brassica campestris L.): 5 (Herbicidal ratio of 90% or more (almost completely withered))
- f (Beta vulgaris ssp. vulgaris) effect on crop grade [4]: 5 (Herbicidal ratio of 90% or more (almost completely withered))
- e (Triticum aestivum) effect on crop grade (Triticum aestivum): 4 (Herbicidal ratio of 70% or more and less than 90%)
- c (Glycine max) effect on crop grade (Glycine max): 4 (Herbicidal ratio of 70% or more and less than 90%)
- b (Zea mays) effect on crop grade (Zea mays): 5 (Herbicidal ratio of 90% or more (almost completely withered))
- d (directly sowed Oryza sativa) effect on crop grade [5]: 5 (Herbicidal ratio of 90% or more (almost completely withered))
